Structures can show the parent of a compound that is named as a salt.
Columns and labels:
pERK1/2 = test: Western blot, inhibition of EGF-mediated formation of pERK1/2 in MDA-MB-231 cells; assay type: cell-based; settings: for pERK-½ decrease (%) / pERK-½ relative activity (%): Example 3 table, MDA-MB-231, EGF stimulation; for pERK-½ decrease (%): DMSO = 0; for inhibition at 10 µM: Homo sapiens, MDA-MB-231, Table 1, MDA-MB-231, compounds 10 μM 30 min, then EGF 50 ng/mL 15 min, read-out: cellular pERK1/2 decrease (%); for pERK-½ relative activity (%): DMSO = 100; for cellular pERK1/2 activation (printed in the decrease column): Table 1, cell marked 'activation'
Description: (§1) FIG. 9 is a set of bar graphs showing a Western blot analysis of potential MEK5 inhibitors. The MDA-MB-231 triple negative breast cancer cell line was pretreated with compounds (10 μM) for 30 minutes followed by stimulation with epidermal growth factor (EGF, 50 ng/mL) for 15 minutes. Vehicle-treated cells were pretreated with DMSO for 30 minutes prior to EGF stimulation for 15 minutes. Protein visualization and quantification analysis were performed using LI-COR Odyssey Imager. * P<0.05 vs. Vehicle, one-way ANOVA followed by Tukey-Kramer test (n=3).
(§2) A number of compounds were tested for their potential as MEK5 inhibitors. The MDA-MB-231 triple negative breast cancer cell line was pretreated with 10 μM of compounds 24, 9b, 9a, 9c, 9e, 9f, 9d, 9h, 23, 7, and 15 for 30 minutes followed by stimulation with epidermal growth factor (EGF, 50 ng/mL) for 15 minutes. Vehicle-treated cells and known MEK1/2 inhibitor cells were pretreated with DMSO and U0126 respectively for 30 minutes prior to EGF stimulation for 15 minutes. Protein visualization and quantification analysis was performed using LI-COR Odyssey Imager. The results of the Western blot analysis are shown in FIG. 9. * P<0.05 vs. Vehicle, one-way ANOVA followed by Tukey-Kramer test (n=3).
(§3) MDA-MB-231 cells were grown on 10 cm cell culture plates [Sarstedt] in Dulbecco's Modified Eagle's Medium (DMEM; Gibco) with Ham's F12 Nutrient Mixture (1:1) (Invitrogen), 10% heat-inactivated FBS [Atlanta Biological and 0.5% penicillin/streptomycin [Gibco]. Cells were maintained at 37° C. with 5% CO2. Plating of the cells was done 36 hours before treatment in 35 mm culture plates [Sarstedt] and allowed to reach confluence. To test MEK-5 inhibitors, the cells were treated with epidermal growth factor (EGF; Sigma-Aldrich) 30 min after treatment with the compounds. 15 min after the addition of EGF, the cells were washed with 1×PBS [Sigma-Aldrich] and then lysed in 1% Triton X-100 buffer containing 20 mM Tris (pH 6.8), 137 mM NaCl, 25 mM beta glycerophosphate, 2 mM NaPPi, 2 mM EDTA, 1 mM Na3VO4, 10% glycerol, 5 μg/mL leupeptin, 5 μg/mL aprotinin, 2 mM benzamidine, 0.5 mM DTT, and 1 mM PMSF. The lysates were then centrifuged at 10,000 rpm for 10 min at 4° C.
(§4) Total protein content was assessed by Bradford Bio-Rad protein assay (Cat. No. 500-0006, Bio-Rad, Hercules, Calif.) and 30 μg of protein was loaded on a 8% SDS-PAGE gel for phosphorylated and total ERK1/2 and ERK5 proteins. After running the samples, gels were transferred to a nitrocellulose membrane (Cat. No. 926-31092, Licor Biosciences, Lincoln, Nebr.). After transfer, membranes were washed for 5 min with 1×PBS and blocked for 1 h in a Casein Blocking Buffer (Cat. No. 927-40200, Licor Biosciences) at room temperature. Membranes were then incubated overnight at 4° C. in primary antibody in CBB with 0.2% Tween-20. Antibodies included rabbit anti-phospho-ERK1/2 (Dilution—1:1000, Cat. No. 9101, Cell Signaling, Beverly, Mass.), mouse anti-total ERK1/2 (Dilution—1:1000, Cat. No. 9107, Cell Signaling), and rabbit anti-total ERK5 (Dilution—1:1,000, Cat. No. 3372, Cell Signaling). Mouse anti-α-Tubulin (Dilution—1:10,000, Cat. No. T5168, Sigma-Aldrich) was used as a loading control. After incubation with primary antibody, blots were washed in 1×PBS solution with 0.2% Tween-20 (1×PBS-T) and incubated with goat anti-rabbit (Dilution—1:10,000, Cat. No. 926-68021, LICOR Biosciences) and goat anti-mouse (Dilution—1:10,000, Cat. No. 926-32210, LICOR Biosciences) secondary antibodies for 1 h at room temperature. After washing the membranes with 1×PBS-T, the protein bands were visualized on an Odyssey Infrared Imager and quantified with Odyssey software (LICOR Biosciences).

pERK5 = test: Western blot, inhibition of EGF-mediated formation of pERK5 in MDA-MB-231 cells; assay type: cell-based; settings: for pERK-5 decrease (%) / pERK-5 relative activity (%): Example 3 table, MDA-MB-231, EGF stimulation; for pERK-5 decrease (%): DMSO = 0; for inhibition at 10 µM: Homo sapiens, MDA-MB-231, Table 1, MDA-MB-231, compounds 10 μM 30 min, then EGF 50 ng/mL 15 min, read-out: cellular pERK5 decrease (%); for pERK-5 relative activity (%): DMSO = 100; for cellular pERK5 activation (printed in the decrease column): Table 1, cell marked 'activation'
Description: as §1, §2, §3, §4

Structure (SMILES) | pERK-½ decrease (%) (pERK1/2) | inhibition at 10 µM (pERK1/2) [%] | pERK-5 decrease (%) (pERK5) | inhibition at 10 µM (pERK5) [%] | other results
O=C(O)c1ccc(F)c(F)c1Nc1ccc(I)cc1F [Compound 7, 3,4-difluoro-2-((2-fluoro-4-iodophenyl)amino)benzoic acid] | 98.5 | 98.5 | 20.1 | 20.1 | –
CN(C)C(=O)c1ccc(F)c(F)c1Nc1ccc(I)cc1F [Compound 9a, 3,4-difluoro-2-((2-fluoro-4-iodophenyl)amino)-N,N-dimethylbenzamide] | 87.3 | 87.3 | 0.2 | 0.2 | –
CCN(CC)C(=O)c1ccc(F)c(F)c1Nc1ccc(I)cc1F [Compound 9b, N,N-diethyl-3,4-difluoro-2-((2-fluoro-4-iodophenyl)amino)benzamide] | 5.5 | 5.5 | – | – | pERK-5 relative activity (%) (pERK5): 7.4%; cellular pERK5 activation (printed in the decrease column) (pERK5): activation (−7.4) %
CNC(=O)c1ccc(F)c(F)c1Nc1ccc(I)cc1F [Compound 9c, 3,4-difluoro-2-((2-fluoro-4-iodophenyl)amino)-N-methylbenzamide] | 99.6 | 99.6 | 20.4 | 20.4 | –
CCNC(=O)c1ccc(F)c(F)c1Nc1ccc(I)cc1F [Compound 9d, N-ethyl-3,4-difluoro-2-((2-fluoro-4-iodophenyl)amino)benzamide] | 98.6 | 98.6 | 8.5 | 8.5 | –
COC(=O)c1ccc(F)c(F)c1Nc1ccc(I)cc1F [Compound 9e, Methyl 3,4-difluoro-2-((2-fluoro-4-iodophenyl)amino)benzoate] | 98.9 | 98.9 | 13.0 | 13 | –
O=C(c1ccc(F)c(F)c1Nc1ccc(I)cc1F)N1CCNCC1 [Compound 9f, (3,4-difluoro-2-((2-fluoro-4-iodophenyl)amino)phenyl)(piperazin-1-yl)methanone hydrochloride] | 99.0 | 99 | – | – | pERK-5 relative activity (%) (pERK5): 6.2%; cellular pERK5 activation (printed in the decrease column) (pERK5): activation (+4.4) %
CC(C)(C)OC(=O)N1CCN(C(=O)c2ccc(F)c(F)c2Nc2ccc(I)cc2F)CC1 [Compound 9g, Tert-butyl 4-(3,4-difluoro-2-((2-fluoro-4-iodophenyl)amino)benzoyl)piperazine-1-carboxylate] | 70.9 | 70.9 | 8.4 | 8.4 | –
CN(C)CCN(C)C(=O)c1ccc(F)c(F)c1Nc1ccc(I)cc1F [Compound 9h, N-(2-(dimethylamino)ethyl)-3,4-difluoro-2-((2-fluoro-4-iodophenyl)amino)-N-methylbenzamide hydrochloride] | 27.9 | 28.2 | 9.4 | 9 | –
O=C(O)c1ccc(F)c(F)c1Nc1ccccc1 [Compound 12, 3,4-difluoro-2-(phenylamino)benzoic acid] | 7.1 | – | 10.4 | – | –
O=C(O)c1ccc(F)c(F)c1Nc1ccccc1F [Compound 13, 3,4-difluoro-2-((2-fluorophenyl)amino)benzoic acid] | – | – | 11.1 | – | pERK-½ relative activity (%) (pERK1/2): 7.1%
CN1CCN(C(=O)c2ccc(F)c(F)c2Nc2ccccc2)CC1 [Compound 15] | – | – | 82.4 | 82.4 | pERK-½ relative activity (%) (pERK1/2): 8.5%; cellular pERK1/2 activation (printed in the decrease column) (pERK1/2): activation (+8.5) %
CN1CCN(C(=O)c2ccccc2Nc2ccccc2)CC1 [Compound 23, (4-methylpiperazin-1-yl)(2-(phenylamino)phenyl)methanone] | 29.3 | 29.6 | 71 | – | cellular pERK1/2 activation (printed in the decrease column) (pERK1/2): +5.5%
CN1CCN(C(=O)c2ccccc2Nc2ccc(I)cc2F)CC1 [Compound 24, (2-((2-fluoro-4-iodophenyl)amino)phenyl)(4-methylpiperazin-1-yl)methanone hydrochloride] | 33.5 | 33.5 | 30.9 | 20.9 | –
N#CC(=C(/N)Sc1ccccc1N)/C(C#N)=C(\N)Sc1ccccc1N [Compound U0126, reference compound] | 99.6 | – | 43 | – | –
O=C(c1ccc(F)c(F)c1Nc1ccc(I)cc1F)N1CCOCC1 [IC-3-93] | – | 47.8 | – | 76.3 | –
O=C(c1ccc(F)c(F)c1Nc1ccc(I)cc1F)N1CCCCC1 [IC-3-97] | – | 42.4 | – | 87.1 | –
O=C(NCCO)c1ccc(F)c(F)c1Nc1ccc(I)cc1F [IC-3-102] | – | -31.1 | – | 47.9 | –
O=C(N[C@@H](CO)C(=O)O)c1ccc(F)c(F)c1Nc1ccc(I)cc1F [IC-3-111] | – | 85 | – | – | –
O=C(N[C@H](CO)C(=O)O)c1ccc(F)c(F)c1Nc1ccc(I)cc1F [IC-3-117] | – | 80.8 | – | 127 | –
CN1CCN(C(=O)c2ccc(F)c(F)c2Nc2ccc(I)cc2F)CC1 [IC-D-122b] | – | 39 | – | 33 | –
O=C(NOC[C@H](O)CO)c1ccc(F)c(F)c1Nc1ccc(I)cc1F [PD 0325901, reference compound] | 99.7 | – | 95.9 | – | –
CN(c1ccc(I)cc1F)c1c(C(=O)O)ccc(F)c1F [SC-2-32, 3,4-difluoro-2-((2-fluoro-4-iodophenyl)(methyl)amino)benzoic acid] | 33.5 | – | – | – | pERK-5 relative activity (%) (pERK5): 5.5%
NC(=O)c1ccc(F)c(F)c1Nc1ccccc1F [SC-2-37, 3,4-difluoro-2-((2-fluorophenyl)amino)benzamide] | 52.8 | – | 56.1 | – | melting point: 157.6 to 161.2 °C
CN1CCN(C(=O)c2ccc(F)c(F)c2Nc2ccccc2F)CC1.O=C(O)/C=C/C(=O)O [SC-2-45, (3,4-difluoro-2-((2-fluorophenyl)amino)phenyl)(4-methylpiperazin-1-yl)methanone mono-fumarate] | 16.5 | – | 40.5 | – | –
CCOc1cc(N2CCC(O)CC2)ccc1Nc1ncc2c(n1)N(C)c1ccccc1C(=O)N2C [XMD8-92, reference compound] | 50.1 | – | 95.2 | – | –

Source: patent publication US11465978B2, “Anthranilic amides and the use thereof” (THE ADMINISTRATORS OF THE TULANE EDUCATIONAL FUND, priority 2013, dated 2022)
